{"source": "paper PMC5666424", "about": "“Marine-Derived 2-Aminoimidazolone Alkaloids. Leucettamine B-Related Polyandrocarpamines Inhibit Mammalian and Protozoan DYRK & CLK Kinases” (Marine Drugs, 2017)", "assay_in_all_cases": "KinomeScan", "type_in_all_cases": "binding", "conditions_in_all_cases": "1 μM", "key": {"EPHB1": {"biological_target": "T1, EPHB1 (Homo sapiens, UniProt P54762)", "T1 construct": "purchased DiscoverX (KINOMEscan)", "T1 sequence (P54762 18-984)": "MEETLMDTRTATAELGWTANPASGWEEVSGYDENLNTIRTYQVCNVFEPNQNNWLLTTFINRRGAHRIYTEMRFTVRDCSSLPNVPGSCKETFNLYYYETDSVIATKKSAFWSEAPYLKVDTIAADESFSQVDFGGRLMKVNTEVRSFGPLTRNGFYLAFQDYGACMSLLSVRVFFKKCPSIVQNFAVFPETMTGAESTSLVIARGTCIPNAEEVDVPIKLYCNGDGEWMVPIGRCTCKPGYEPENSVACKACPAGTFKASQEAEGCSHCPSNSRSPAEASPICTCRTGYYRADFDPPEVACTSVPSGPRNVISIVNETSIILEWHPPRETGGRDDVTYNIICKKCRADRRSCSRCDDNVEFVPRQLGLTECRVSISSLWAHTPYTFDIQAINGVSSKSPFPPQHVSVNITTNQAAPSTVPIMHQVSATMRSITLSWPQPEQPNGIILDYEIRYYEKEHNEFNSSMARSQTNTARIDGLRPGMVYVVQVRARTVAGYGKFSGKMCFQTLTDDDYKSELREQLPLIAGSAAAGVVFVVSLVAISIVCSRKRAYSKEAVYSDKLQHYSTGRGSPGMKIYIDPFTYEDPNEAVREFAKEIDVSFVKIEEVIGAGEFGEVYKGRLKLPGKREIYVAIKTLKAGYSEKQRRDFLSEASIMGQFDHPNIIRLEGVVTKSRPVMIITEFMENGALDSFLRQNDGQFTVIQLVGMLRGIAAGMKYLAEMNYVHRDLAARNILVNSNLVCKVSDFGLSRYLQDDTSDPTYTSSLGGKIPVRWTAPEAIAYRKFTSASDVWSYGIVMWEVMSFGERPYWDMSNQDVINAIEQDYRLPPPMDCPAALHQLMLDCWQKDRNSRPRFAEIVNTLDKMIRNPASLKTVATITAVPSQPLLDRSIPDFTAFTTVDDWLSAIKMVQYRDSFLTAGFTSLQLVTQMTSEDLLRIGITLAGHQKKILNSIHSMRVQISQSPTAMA"}, "TRKB": {"biological_target": "T2, TRKB (Homo sapiens, UniProt Q16620)", "T2 construct": "purchased DiscoverX (KINOMEscan)", "T2 sequence (Q16620 32-822)": "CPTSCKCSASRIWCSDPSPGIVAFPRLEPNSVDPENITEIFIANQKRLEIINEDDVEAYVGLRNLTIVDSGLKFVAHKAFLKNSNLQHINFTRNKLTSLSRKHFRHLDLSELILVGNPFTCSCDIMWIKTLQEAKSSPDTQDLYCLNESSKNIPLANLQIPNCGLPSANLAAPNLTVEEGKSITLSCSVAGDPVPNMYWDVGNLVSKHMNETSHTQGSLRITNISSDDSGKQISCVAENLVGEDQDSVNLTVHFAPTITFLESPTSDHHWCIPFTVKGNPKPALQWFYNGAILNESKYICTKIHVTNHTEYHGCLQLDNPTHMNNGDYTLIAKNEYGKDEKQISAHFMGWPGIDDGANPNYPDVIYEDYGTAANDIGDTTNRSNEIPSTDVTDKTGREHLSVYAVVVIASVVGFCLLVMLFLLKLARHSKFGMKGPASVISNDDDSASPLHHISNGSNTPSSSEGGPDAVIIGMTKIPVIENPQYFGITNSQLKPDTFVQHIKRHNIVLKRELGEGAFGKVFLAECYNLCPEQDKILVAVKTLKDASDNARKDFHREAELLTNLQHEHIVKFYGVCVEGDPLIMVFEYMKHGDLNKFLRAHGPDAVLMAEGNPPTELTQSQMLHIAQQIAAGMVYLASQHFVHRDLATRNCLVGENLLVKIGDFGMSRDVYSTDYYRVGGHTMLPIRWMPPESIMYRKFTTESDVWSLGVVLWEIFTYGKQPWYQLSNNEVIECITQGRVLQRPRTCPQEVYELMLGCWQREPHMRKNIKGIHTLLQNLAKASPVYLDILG"}, "ALK": {"biological_target": "T3, ALK (Homo sapiens, UniProt Q9UM73)", "T3 construct": "purchased DiscoverX (KINOMEscan)"}, "FGR": {"biological_target": "T4, FGR (Homo sapiens, UniProt P09769)", "T4 construct": "purchased DiscoverX (KINOMEscan)"}, "BRSK2": {"biological_target": "T5, BRSK2 (Homo sapiens, UniProt Q8IWQ3)", "T5 construct": "purchased DiscoverX (KINOMEscan)"}, "ASK2": {"biological_target": "T6, ASK2 (Homo sapiens, UniProt O95382)", "T6 construct": "purchased DiscoverX (KINOMEscan)"}, "TNK2": {"biological_target": "T7, TNK2 (Homo sapiens, UniProt Q07912)", "T7 construct": "purchased DiscoverX (KINOMEscan)"}, "CSK": {"biological_target": "T8, CSK (Homo sapiens, UniProt P41240)", "T8 construct": "purchased DiscoverX (KINOMEscan)"}, "ANKK1": {"biological_target": "T9, ANKK1 (Homo sapiens, UniProt Q8NFD2)", "T9 construct": "purchased DiscoverX (KINOMEscan)"}, "CAMK2B": {"biological_target": "T10, CAMK2B (Homo sapiens, UniProt Q13554)", "T10 construct": "purchased DiscoverX (KINOMEscan)"}, "SNARK": {"biological_target": "T11, SNARK (Homo sapiens, UniProt Q9H093)", "T11 construct": "purchased DiscoverX (KINOMEscan)"}, "TLK1": {"biological_target": "T12, TLK1 (Homo sapiens, UniProt Q9UKI8)", "T12 construct": "purchased DiscoverX (KINOMEscan)"}, "ULK1": {"biological_target": "T13, ULK1 (Homo sapiens, UniProt O75385)", "T13 construct": "purchased DiscoverX (KINOMEscan)"}, "CIT": {"biological_target": "T14, CIT (Homo sapiens, UniProt O14578)", "T14 construct": "purchased DiscoverX (KINOMEscan)"}, "[1]": {"biological_target": "T15, JAK1(JH2domain-pseudokinase) (Homo sapiens, UniProt P23458)", "T15 construct": "JAK1(JH2domain-pseudokinase); purchased DiscoverX (KINOMEscan)", "T15 sequence (P23458 561-860 limits assumed)": "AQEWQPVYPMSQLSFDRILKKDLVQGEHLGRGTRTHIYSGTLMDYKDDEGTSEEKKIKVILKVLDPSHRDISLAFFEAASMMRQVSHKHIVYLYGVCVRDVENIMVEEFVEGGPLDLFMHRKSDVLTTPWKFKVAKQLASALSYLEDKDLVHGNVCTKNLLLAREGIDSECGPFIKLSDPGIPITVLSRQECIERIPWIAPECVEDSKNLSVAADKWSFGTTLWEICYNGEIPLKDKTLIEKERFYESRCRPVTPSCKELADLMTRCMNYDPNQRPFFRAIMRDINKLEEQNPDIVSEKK"}, "[2]": {"biological_target": "T16, JAK3(JH1domain-catalytic) (Homo sapiens, UniProt P52333)", "T16 construct": "JAK3(JH1domain-catalytic); purchased DiscoverX (KINOMEscan)", "T16 sequence (P52333 811-1124 limits assumed)": "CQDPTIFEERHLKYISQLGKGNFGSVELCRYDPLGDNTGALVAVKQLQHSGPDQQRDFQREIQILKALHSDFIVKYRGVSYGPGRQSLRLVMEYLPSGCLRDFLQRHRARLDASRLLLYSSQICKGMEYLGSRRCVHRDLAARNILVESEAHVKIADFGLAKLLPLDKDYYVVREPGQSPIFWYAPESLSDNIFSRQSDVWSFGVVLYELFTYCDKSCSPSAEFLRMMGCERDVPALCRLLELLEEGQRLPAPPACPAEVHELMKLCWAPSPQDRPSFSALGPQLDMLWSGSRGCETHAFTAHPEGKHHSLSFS"}, "MAP3K1": {"biological_target": "T17, MAP3K1 (Homo sapiens, UniProt Q13233)", "T17 construct": "purchased DiscoverX (KINOMEscan)"}, "ERK2": {"biological_target": "T18, ERK2 (Homo sapiens, UniProt P28482)", "T18 construct": "purchased DiscoverX (KINOMEscan)"}, "MAP3K3": {"biological_target": "T19, MAP3K3 (Homo sapiens, UniProt Q99759)", "T19 construct": "purchased DiscoverX (KINOMEscan)"}, "[3]": {"biological_target": "T20, ABL1(M351T)-phosphorylated (Homo sapiens, UniProt P00519, M351T)", "T20 construct": "purchased DiscoverX (KINOMEscan)"}, "GRK1": {"biological_target": "T21, GRK1 (Homo sapiens, UniProt Q15835)", "T21 construct": "purchased DiscoverX (KINOMEscan)"}, "MARK3": {"biological_target": "T22, MARK3 (Homo sapiens, UniProt P27448)", "T22 construct": "purchased DiscoverX (KINOMEscan)"}, "ERBB2": {"biological_target": "T23, ERBB2 (Homo sapiens, UniProt P04626)", "T23 construct": "purchased DiscoverX (KINOMEscan)", "T23 sequence (P04626 23-1255)": "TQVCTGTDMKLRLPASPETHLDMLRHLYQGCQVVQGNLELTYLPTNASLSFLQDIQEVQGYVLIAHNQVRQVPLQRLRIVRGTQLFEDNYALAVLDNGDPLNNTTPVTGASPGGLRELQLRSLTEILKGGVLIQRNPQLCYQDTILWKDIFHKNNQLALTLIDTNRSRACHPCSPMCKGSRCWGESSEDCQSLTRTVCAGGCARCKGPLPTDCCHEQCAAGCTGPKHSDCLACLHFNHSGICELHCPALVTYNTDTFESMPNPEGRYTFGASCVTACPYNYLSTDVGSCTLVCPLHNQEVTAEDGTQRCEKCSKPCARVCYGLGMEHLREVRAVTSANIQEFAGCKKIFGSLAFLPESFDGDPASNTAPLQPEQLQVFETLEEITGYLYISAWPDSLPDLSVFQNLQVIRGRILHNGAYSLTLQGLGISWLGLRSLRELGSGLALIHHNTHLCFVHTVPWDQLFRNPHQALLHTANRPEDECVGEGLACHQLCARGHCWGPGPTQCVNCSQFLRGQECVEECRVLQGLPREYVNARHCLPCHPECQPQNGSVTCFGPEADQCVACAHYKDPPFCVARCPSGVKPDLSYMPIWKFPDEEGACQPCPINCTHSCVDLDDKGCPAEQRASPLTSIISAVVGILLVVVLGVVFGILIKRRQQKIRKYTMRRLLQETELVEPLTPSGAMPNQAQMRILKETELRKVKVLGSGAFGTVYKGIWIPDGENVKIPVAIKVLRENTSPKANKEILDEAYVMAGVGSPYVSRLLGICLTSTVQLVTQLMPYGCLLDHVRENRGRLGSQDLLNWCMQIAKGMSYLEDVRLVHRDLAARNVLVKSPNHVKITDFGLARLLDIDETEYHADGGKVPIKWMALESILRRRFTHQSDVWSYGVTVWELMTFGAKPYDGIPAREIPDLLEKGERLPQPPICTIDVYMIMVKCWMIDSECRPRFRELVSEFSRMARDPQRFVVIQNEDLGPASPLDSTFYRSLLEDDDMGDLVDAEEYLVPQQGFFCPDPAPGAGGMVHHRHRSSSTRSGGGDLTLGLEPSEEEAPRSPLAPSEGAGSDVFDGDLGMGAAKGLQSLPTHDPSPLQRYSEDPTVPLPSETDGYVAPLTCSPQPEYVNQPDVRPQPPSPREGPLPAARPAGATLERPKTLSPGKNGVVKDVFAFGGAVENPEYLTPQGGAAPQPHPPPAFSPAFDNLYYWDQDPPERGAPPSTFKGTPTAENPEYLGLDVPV"}, "MAP3K15": {"biological_target": "T24, MAP3K15 (Homo sapiens, UniProt Q6ZN16)", "T24 construct": "purchased DiscoverX (KINOMEscan)"}, "CAMK4": {"biological_target": "T25, CAMK4 (Homo sapiens, UniProt Q16566)", "T25 construct": "purchased DiscoverX (KINOMEscan)"}, "FLT3(D835H)": {"biological_target": "T26, FLT3(D835H) (Homo sapiens, UniProt P36888, D835H)", "T26 construct": "purchased DiscoverX (KINOMEscan)"}, "CSNK1D": {"biological_target": "T27, CSNK1D (Homo sapiens, UniProt P48730)", "T27 construct": "purchased DiscoverX (KINOMEscan)"}, "TLK2": {"biological_target": "T28, TLK2 (Homo sapiens, UniProt Q86UE8)", "T28 construct": "purchased DiscoverX (KINOMEscan)"}, "JNK2": {"biological_target": "T29, JNK2 (Homo sapiens, UniProt P45984)", "T29 construct": "purchased DiscoverX (KINOMEscan)"}, "TAOK3": {"biological_target": "T30, TAOK3 (Homo sapiens, UniProt Q9H2K8)", "T30 construct": "purchased DiscoverX (KINOMEscan)"}, "MAP3K2": {"biological_target": "T31, MAP3K2 (Homo sapiens, UniProt Q9Y2U5)", "T31 construct": "purchased DiscoverX (KINOMEscan)"}, "SIK2": {"biological_target": "T32, SIK2 (Homo sapiens, UniProt Q9H0K1)", "T32 construct": "purchased DiscoverX (KINOMEscan)"}, "STK35": {"biological_target": "T33, STK35 (Homo sapiens, UniProt Q8TDR2)", "T33 construct": "purchased DiscoverX (KINOMEscan)"}, "MYLK": {"biological_target": "T34, MYLK (Homo sapiens, UniProt Q15746)", "T34 construct": "purchased DiscoverX (KINOMEscan)"}, "MKNK2": {"biological_target": "T35, MKNK2 (Homo sapiens, UniProt Q9HBH9)", "T35 construct": "purchased DiscoverX (KINOMEscan)"}, "ASK1": {"biological_target": "T36, ASK1 (Homo sapiens, UniProt Q99683)", "T36 construct": "purchased DiscoverX (KINOMEscan)"}, "SGK3": {"biological_target": "T37, SGK3 (Homo sapiens, UniProt Q96BR1)", "T37 construct": "purchased DiscoverX (KINOMEscan)"}}, "data": [{"smiles": "COc1cc(/C=C2\\N=C(N)NC2=O)ccc1O", "note": "[Polyandrocarpamine A]", "values": [{"measurement": "Score", "setting": "EPHB1", "value": 89}, {"measurement": "Score", "setting": "TRKB", "value": 100}, {"measurement": "Score", "setting": "ALK", "value": 100}, {"measurement": "Score", "setting": "FGR", "value": 100}, {"measurement": "Score", "setting": "BRSK2", "value": 100}, {"measurement": "Score", "setting": "ASK2", "value": 100}, {"measurement": "Score", "setting": "TNK2", "value": 100}, {"measurement": "Score", "setting": "CSK", "value": 100}, {"measurement": "Score", "setting": "ANKK1", "value": 100}, {"measurement": "Score", "setting": "CAMK2B", "value": 90}, {"measurement": "Score", "setting": "SNARK", "value": 100}, {"measurement": "Score", "setting": "TLK1", "value": 94}, {"measurement": "Score", "setting": "ULK1", "value": 94}, {"measurement": "Score", "setting": "CIT", "value": 100}, {"measurement": "Score", "setting": "[1]", "value": 92}, {"measurement": "Score", "setting": "[2]", "value": 84}, {"measurement": "Score", "setting": "MAP3K1", "value": 100}, {"measurement": "Score", "setting": "ERK2", "value": 100}, {"measurement": "Score", "setting": "MAP3K3", "value": 100}, {"measurement": "Score", "setting": "[3]", "value": 100}, {"measurement": "Score", "setting": "GRK1", "value": 100}, {"measurement": "Score", "setting": "MARK3", "value": 100}, {"measurement": "Score", "setting": "ERBB2", "value": 100}, {"measurement": "Score", "setting": "MAP3K15", "value": 100}, {"measurement": "Score", "setting": "CAMK4", "value": 94}, {"measurement": "Score", "setting": "FLT3(D835H)", "value": 94}, {"measurement": "Score", "setting": "CSNK1D", "value": 70}, {"measurement": "Score", "setting": "TLK2", "value": 100}, {"measurement": "Score", "setting": "JNK2", "value": 100}, {"measurement": "Score", "setting": "TAOK3", "value": 87}, {"measurement": "Score", "setting": "MAP3K2", "value": 100}, {"measurement": "Score", "setting": "SIK2", "value": 94}, {"measurement": "Score", "setting": "STK35", "value": 95}, {"measurement": "Score", "setting": "MYLK", "value": 98}, {"measurement": "Score", "setting": "MKNK2", "value": 100}, {"measurement": "Score", "setting": "ASK1", "value": 100}, {"measurement": "Score", "setting": "SGK3", "value": 100}]}]}
